Experimental data published in PubChem BioAssay AID1963844 (Molecular Pharmacology Branch, DTP, NCI, 2024).

System: 422866-222-R5-J1-PDC complex spheroid viability
Experiment: Anticancer human tumor 422866-222-R5-J1-PDC patient-derived pancreatic adenocarcinoma cell line growth inhibition [POLQ]
Settings: for IC50: curve of first compound; for viability, T/C: stronger effect = lower value
Outline: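 Growth inhibition in 3D: complex spheroids (tumor PDC, HUVEC, MSC) treated with POLQ inhibitor combinations; where Cmax unknown, highest tested concentration 10 microM, except SN-38 at 1 microM.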
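Further: spheroids exposed to compounds for one week before readout.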
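Wherever viability, T/C is given: percent of DMSO vehicle wells luminescence so 100% = untreated viability.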

C=CCn1c(=O)c2cnc(Nc3ccc(N4CCN(C)CC4)cc3)nc2n1-c1cccc(C(C)(C)O)n1 + Cc1cccc(N(C)C(=O)C2C(O)CCN2c2nc(C)cc(C(F)(F)F)c2C#N)c1
IC50 (second compound 0.0316 µM): 298 nM
IC50 (second compound 0.1 µM): 289 nM
IC50 (second compound 0.316 µM): 299 nM
IC50 (second compound 1 µM): 257 nM
IC50 (second compound 3.16 µM): 423 nM
IC50 (second compound 10 µM): 277 nM
viability, T/C (second compound 0.0316 µM, first compound 0.00316 µM): 107%
viability, T/C (second compound 0.0316 µM, first compound 0.01 µM): 96.1%
viability, T/C (second compound 0.0316 µM, first compound 0.0316 µM): 110%
viability, T/C (second compound 0.0316 µM, first compound 0.1 µM): 89.1%
viability, T/C (second compound 0.0316 µM, first compound 0.316 µM): 48.4%
viability, T/C (second compound 0.0316 µM, first compound 1 µM): 33.3%
viability, T/C (second compound 0.1 µM, first compound 0.00316 µM): 93%
viability, T/C (second compound 0.1 µM, first compound 0.01 µM): 93.8%
viability, T/C (second compound 0.1 µM, first compound 0.0316 µM): 101%
viability, T/C (second compound 0.1 µM, first compound 0.1 µM): 85.8%
viability, T/C (second compound 0.1 µM, first compound 0.316 µM): 47.1%
viability, T/C (second compound 0.1 µM, first compound 1 µM): 35.1%
viability, T/C (second compound 0.316 µM, first compound 0.00316 µM): 108%
viability, T/C (second compound 0.316 µM, first compound 0.01 µM): 97.3%
viability, T/C (second compound 0.316 µM, first compound 0.0316 µM): 105%
viability, T/C (second compound 0.316 µM, first compound 0.1 µM): 97.1%
viability, T/C (second compound 0.316 µM, first compound 0.316 µM): 47.5%
viability, T/C (second compound 0.316 µM, first compound 1 µM): 31.3%
viability, T/C (second compound 1 µM, first compound 0.00316 µM): 110%
viability, T/C (second compound 1 µM, first compound 0.01 µM): 85.1%
viability, T/C (second compound 1 µM, first compound 0.0316 µM): 104%
viability, T/C (second compound 1 µM, first compound 0.1 µM): 83.8%
viability, T/C (second compound 1 µM, first compound 0.316 µM): 42.8%
viability, T/C (second compound 1 µM, first compound 1 µM): 32.3%
viability, T/C (second compound 3.16 µM, first compound 0.00316 µM): 98.4%
viability, T/C (second compound 3.16 µM, first compound 0.01 µM): 87.2%
viability, T/C (second compound 3.16 µM, first compound 0.0316 µM): 91.6%
viability, T/C (second compound 3.16 µM, first compound 0.1 µM): 100%
viability, T/C (second compound 3.16 µM, first compound 0.316 µM): 54.8%
viability, T/C (second compound 3.16 µM, first compound 1 µM): 35.7%
viability, T/C (second compound 10 µM, first compound 0.00316 µM): 104%
viability, T/C (second compound 10 µM, first compound 0.01 µM): 95.8%
viability, T/C (second compound 10 µM, first compound 0.0316 µM): 97.3%
viability, T/C (second compound 10 µM, first compound 0.1 µM): 75.3%
viability, T/C (second compound 10 µM, first compound 0.316 µM): 46.6%
viability, T/C (second compound 10 µM, first compound 1 µM): 40.4%
